Assay results as given in US10512667B2, “Compositions and methods for treating conditions related to adrenocortical activity and/or excessive steroid production” (The Regents of the University of Michigan, priority 2017, dated 2019).
“Also recorded” adds a separate entry of the source.

Tests used:
[1] = test system: H295R cells; experiment: Caspase 3/7 activity (Apo-ONE); type: cell-based; conditions: H295R cells
Method: (§1) The samples were incubated for 18 h at room temperature in the dark. The fluorescence was measured using a SpectraMax M5 microplate reader with a 0.5 s acquisition time.

[2] = test system: BD140C cells; experiment: Caspase 3/7 activity (Apo-ONE); type: cell-based
Method: as §1

[3] = test system: H295R cells; experiment: Cholesterol crystallization and extracellular cholesterol associated with cells; type: cell-based
Method: To quantify cholesterol crystallization, experiments were conducted that measured the total extracellular cholesterol that was associated with the cells. After culturing cells with the indicated compounds, the culture medium was removed. Medium lacking cholesterol was added to the cells, and the extracellular cholesterol that was released into the wash medium was collected after 30 seconds. To establish if the cholesterol that was released from the cells was exported by ABCA1, the wash step was performed in parallel using media with and without 50 μM glibenclamide, which inhibits ABCA1 activity. The total amount of cell-associated cholesterol that was released into the wash medium was measured using a fluorometric enzyme-linked assay (Cayman Chemical). Cholesterol esters were hydrolyzed using cholesterol esterase. Cholesterol was oxidized by cholesterol oxidase, producing hydrogen peroxide. The hydrogen peroxide was reacted with 10-acetyl-3,7-dihydroxyphenoxazine (ADHP) in the presence of horseradish peroxidase to produce resorufin. Resorufin fluorescence was measured using 555 nm exitation and 590 nm emission wavelengths in a SpectraMax M5 microplate reader (Molecular Devices).
The medium was removed and replaced with 50 μl serum-free medium supplemented with 5 μg/mL apo-AI (without or with 50 μM glyburide to detect ABCA1 transporter-dependent efflux) for either 30 sec or 1 h at 37 C in 5% CO2 atmosphere. After the indicated time, the supernatant, was transferred to a new 96-well plate and a fluorometric-base cholesterol detection assay cocktail was added.

[4] = test system: H295R cells; experiment: Resazurin reducing potential; type: cell-based; conditions: 32 μM ATR-101
Method: FIG. 4F: […] The cells were cultured with DMSO vehicle or 32 μM ATR-101 alone, or together with 2 mM MβCD. Resazurin fluorescence intensity was measured using a microplate reader at the indicated times at 37 C. The background signal of wells without resazurin was subtracted. […] DMSO control, *P<0.05).

[5] = test system: H295R cells; experiment: Cholesterol efflux into serum-free medium with apoA1; type: cell-based; conditions: serum-free medium containing apoA-I, 4 h
Method: Cholesterol efflux was measured by replacing the culture medium with serum-free medium supplemented with 5 μg/ml apoA1 (Sigma) and the indicated compounds. After the indicated time, the serum-free medium was collected, and the cholesterol concentration was measured using the fluorometric enzyme-linked assay (Cayman Chemical).
After 48 h, the medium was removed and replaced with 50 μl serum-free medium supplemented with 5 μg/mL apoA1. After the indicated time, the supernatant containing the effluxed cholesterol, was transferred to a new 96-well plate. A cholesterol detection reagent (Cayman Chemical) consisting of cholesterol assay buffer, cholesterol assay detector (10-acetyl-3,7-dihydroxyphenoxazine [ADHP]), horseradish peroxidase, cholesterol oxidase, and cholesterol esterase was added, and the reactions were incubated for 30 min at 37 C. The fluorescence intensities were measured using ex. […] 590 nm. The cholesterol concentrations were calculated by interpolation between the values produced by cholesterol standards that were analyzed in parallel.

[6] = test system: ABCA1; experiment: Transcript measurement by qPCR in H295R cells; type: cell-based
Method: (§2) mRNA was isolated (Qiagen), and was reverse transcribed using the Transcriptor First Strand cDNA synthesis kit (Roche). The relative amounts of cDNAs corresponding to the indicated transcripts were quantified using qPCR assays with specific primers (Table 2).
(§3) H295R cells were seeded in 6-well tissue culture plates (Corning #3506) at a density of 5 X105 per well. After 48 h, the compound(s) indicated were added, and the cells were cultured for the indicated time. The cells were harvested in 1.35 ml culture medium with trypsin. The cells were collected by centrifugation and lysed in 350 μl of RLT buffer (Qiagen) with β-mercaptoethanol. mRNA extraction and DNase treatment were performed according to the manufacturer's protocol (Qiagen). All RNA samples had 260/280 ratios greater than 1.5. The same amount of RNA ranging from 0.1 to 0.5 μg was used for reverse transcription using the Roche Transcriptor First Strand cDNA synthesis kit (Roche #04897030001) using the manufacturer's protocol. SYBR Green I-based real-time qPCR assays were performed using a Roche LightCycler480 instrument. The levels of transcripts in different samples were normalized by the levels of RPL9 transcripts.

[7] = test system: CYP17A1; experiment: Transcript measurement by qPCR in H295R cells; type: cell-based; conditions: H295R cells cultured with ATR-101
Method: as §2, §3

[8] = test system: SULT2A1; experiment: Transcript measurement by qPCR in H295R cells; type: cell-based; conditions: H295R cells cultured with ATR-101
Method: as §2, §3

[9] = test system: ABCG1; experiment: Transcript measurement by qPCR in H295R cells; type: cell-based
Method: as §2, §3

[10] = test system: HSD3B2; experiment: Transcript measurement by qPCR in H295R cells; type: cell-based; conditions: H295R cells cultured with ATR-101
Method: as §2, §3

[11] = test system: IDOL; experiment: Transcript measurement by qPCR in H295R cells; type: cell-based; conditions: within an hour after addition
Method: as §2, §3

[12] = test system: CHOP; experiment: Transcript measurement by qPCR in H295R cells; type: cell-based; conditions: 4 h
Method: as §2, §3

[13] = test system: cholesterol-rich tissues; conditions: cynomologous monkeys; cited from earlier work
[14] = target: T1, MDR1 (Homo sapiens, UniProt P08183); experiment: Doxorubicin accumulation / clearance in H295R cells; type: cell-based; conditions: 25 μM doxorubicin, 2 h
T1 construct: measured the accumulation of doxorubicin in H295R cells; endogenous in cells; host or cells: H295R adrenocortical carcinoma cells
Method: The medium was removed and immediately replaced with 100 μl of fresh media and intracellular doxorubicin fluorescence was visualized by fluorescence microscopy using a 20× objective.

[15] = test system: ACAT; conditions: cited from earlier work
[16] = test system: guinea pig adrenal glands; conditions: cited from earlier work

CC(C)c1cccc(C(C)C)c1NC(=O)NCC1(c2ccc(N(C)C)cc2)CCCC1.Cl [ATR-101, N-(2,6-bis(1-methylethyl)phenyl)-N′-((1-(4-(dimethylamino)phenyl)cyclopentyl)methyl)urea hydrochloride]
time after ATR-101 addition at which caspase activation was detected ([1]; 100 μM ATR-101): 15 min
caspase 3/7 activity, compound alone ([1]; serum-containing medium, 4 h): increased the caspase 3/7 activity
caspase 3/7 activity, compound alone ([1]; serum-containing medium, 24 h): increased the caspase 3/7 activities
caspase 3/7 activity, compound alone ([1]; serum-free medium, 4 h): caused ATP depletion and caspases activation with the same potency
caspase 3/7 activity, compound alone ([2]; 4 h): increased the caspase 3/7 activity
caspase 3/7 activity, compound alone ([2]; 24 h): increased the caspase 3/7 activities
cholesterol crystallization at the plasma membrane, compound alone ([3]; 40 μM ATR-101, 24 h, hydrochloride): associated with crystals that emanated from the cell membrane; also recorded: cholesterol crystallization at the plasma membrane
total extracellular cholesterol associated with cells ([3]; 4 h, 100 μM ATR-101 or 40 μM cholesterol): increased the total extracellular cholesterol
resazurin fluorescence [4]: sustained increase in resazurin fluorescence
cholesterol efflux, compound alone [5]: inhibited cholesterol efflux
ABCA1 transcript level ([6]; 4 h): inhibited
ABCA1 transcript level ([6]; within an hour after addition): reduced
CYP17A1 transcript level [7]: reduced
SULT2A1 transcript level [8]: reduced
ABCG1 transcript level ([9]; 4 h): inhibited
ABCG1 transcript level ([9]; within an hour after addition): reduced
HSD3B2 transcript level [10]: reduced
IDOL transcript level [11]: reduced
CHOP transcript level [12]: activated
tissue distribution of toxicity [13]: limited to cholesterol-rich tissues, including the adrenal cortex, the corpus luteum, and sebaceous glands
doxorubicin accumulation ([14]; 20 μM compound): increased doxorubicin accumulation
doxorubicin accumulation in the presence of MβCD ([14]; 100 μM ATR-101, 4 mM MβCD): caused doxorubicin accumulation in the presence of MβCD
ACAT activity [15]: inhibit ACAT activity
increase of the cholesterol level of adrenal glands ([16]; after 24 hours): 3 fold
onset of rise of the cholesterol level of adrenal glands ([16]; after ATR-101 administration): rises within an hour
